Measurements as given in the NIST ThermoML archive (doi:10.1021/je200813q).

Assay: mn = molality of the nth substance listed, in mol/kg
Conditions: 101.3 kPa, Liquid, Buoyancy - hydrostatic balance with magnetic suspension - one sinker

O=S(=O)([O-])[O-].[O]=[V+2] [oxovanadium(IV) sulfate] + O
mass density [kg/m3]
Conditions	283.15 K	293.15 K	298.15 K	303.15 K	313.15 K	323.15 K
m1 = 0.5	1074.6	1072.5	1070.7	1068	1065	1060.4
m1 = 0.8	1117.6	1114.8	1113	1110.7	1106.6	1101.7
m1 = 1	1144.9	1141.9	1139.8	1137.6	1133.3	1128.4
m1 = 1.2	1171.8	1169.5	1167.2	1164.6	1159.9	1154.7
m1 = 1.5	1211.3	1207.8	1205.3	1202.7	1198.3	1192.4
m1 = 1.8	1249.6	1245.6	1242.9	1240.4	1235.3	1229.9
m1 = 2	1274.1	1270	1267.4	1264.7	1259.6	1253.9
m1 = 2.2	1298.2	1293.9	1291.2	1288.8	1283.4	1277.6
m1 = 2.5	1333.7	1329.3	1326.5	1323.9	1318.5	1312.7
m1 = 2.8	1367.1	1362.8	1359.8	1357.2	1351.6	1345.6
m1 = 3	1389.5	1384.6	1381.3	1378.8	1373.4	1367.5
